# In patent publication US12161650B2, “Pharmaceutical compositions comprising a ryanodine receptor modulator and uses thereof” (priority 2021, dated 2024):
# Where “and” joins values, the source holds several entries; their conditions need not be identical. Equal entries are not always repeated. Where two headings read alike, the source gives them in different places.
# Experiment: Phase 1b study in RYR1-Related Myopathy patients, plasma pharmacokinetics
# Type: in vivo, human (RYR1-Related Myopathy patients)
# Conditions: for Ctrough_D13 / concentration at 13 day: Day 13 trough; for concentration at 13 day: read-out: Ctrough_D13
# Procedure: A Phase 1b study is performed in RYR1-Related Myopathy (RYR1-RM) affected individuals. Compound I was administered in a gastro-resistant tablet according to Example 3 at daily doses. The formulation comprised 20 mg Compound I (based on the mass of 4-[(7-methoxy-2,3-dihydro-1,4-benzothiazepin-4(5H)yl)methyl]benzoic acid). The first three participants were dosed with 120 mg of Compound I (6×20 mg tablets) daily for approximately 28 days. The second group was dosed with 200 mg of Compound I (10×20 mg tablets daily for approximately 28 days. Bloods for PK assessments were at baseline (Day 0, 24h PK), at the study mid-point (day 14±2 days, trough PK), and at the final study visit (day 28, 24h PK). Pharmacokinetic analysis was performed on plasma samples. PK parameters are set forth below: [table]
# [1] = 120 mg oral daily for 28 days, Day 28, n 3, Max
# [2] = 120 mg oral daily for 28 days, Day 28, n 3, Median
# [3] = 120 mg oral daily for 28 days, Day 28, n 3, Min
# [4] = 120 mg oral daily for 28 days, Day 28, n 3, arithmetic mean
# [5] = 120 mg oral daily for 28 days, Day 28, n 3, geometric mean
# [6] = human, plasma, po, 120 mg, 120 mg oral daily for 28 days, Day 28, n 3, arithmetic mean
# [7] = human, plasma, po, 120 mg, 120 mg oral daily for 28 days, Day 28, n 3, geometric mean
# [8] = human, plasma, po, 200 mg, 200 mg oral daily for 28 days, three subjects
# [9] = human, plasma, po, 200 mg, single oral 200 mg, three subjects
# [10] = single oral 120 mg, Day 1, three subjects, Max
# [11] = single oral 120 mg, Day 1, three subjects, Median
# [12] = single oral 120 mg, Day 1, three subjects, Min
# [13] = single oral 120 mg, Day 1, three subjects, arithmetic mean
# [14] = single oral 120 mg, Day 1, three subjects, geometric mean
structure (smiles),measurement,setting,value
"COc1ccc2c(c1)CN(Cc1ccc(C(=O)O)cc1)CCS2.O=C(O)/C=C/C(=O)O [Compound I, 4-[(7-methoxy-2,3-dihydro-1,4-benzothiazepin-4(5H)yl)methyl]benzoic acid hemifumarate]",AUC0-tau,[1],287 µg·h/mL
same,"Cmax, ss",[1],21300 ng/mL
same,Cmin,[1],7760 ng/mL
same,"Tmax, ss",[1],6.00 h
same,Tmin,[1],24.00 h
same,Cmin,[2],7020 ng/mL
same,Tmin,[2],24.000 h
same,AUC0-tau,[3],243 µg·h/mL
same,"Cmax, ss",[3],16900 ng/mL
same,Cmin,[3],5800 ng/mL
same,Tmin,[3],1.00 h
same,Cmin,[4],6860 ng/mL
same,Tmin,[4],16.333 h
same,Cmin,[5],6811 ng/mL
same,Tmin,[5],8.320 h
same,RA_AUC,"120 mg oral daily, AUCtau Day 28/AUC0-24 Day 1, n 3, Max",1.64
same,RA_AUC,"120 mg oral daily, AUCtau Day 28/AUC0-24 Day 1, n 3, Median",1.618
same,RA_AUC,"120 mg oral daily, AUCtau Day 28/AUC0-24 Day 1, n 3, Min","1,50"
same,RA_AUC,"120 mg oral daily, AUCtau Day 28/AUC0-24 Day 1, n 3, arithmetic mean",1.587
same,RA_Cmax,"120 mg oral daily, Cmax Day 28/Cmax Day 1, n 3, Max",1.72
same,RA_Cmax,"120 mg oral daily, Cmax Day 28/Cmax Day 1, n 3, Median",1.523
same,RA_Cmax,"120 mg oral daily, Cmax Day 28/Cmax Day 1, n 3, Min",1.21
same,RA_Cmax,"120 mg oral daily, Cmax Day 28/Cmax Day 1, n 3, arithmetic mean",1.485
same,Ctrough_D13,"120 mg oral daily, n 3, Median",8040 ng/mL
same,Ctrough_D13,"120 mg oral daily, n 3, Min",6710 ng/mL
same,Ctrough_D13,"120 mg oral daily, n 3, geometric mean",7970 ng/mL
same,"Time of Cmin, individual values","120 mg oral daily, Day 28, 1 for 1 subject, 24 for two subjects",1 h and 24 h
same,"Tmax,ss, individual values","120 mg oral daily, Day 28, 4 for two participants, 6 for the third subject",6 h
same,AUC,"human, plasma, po, 120 mg, 120 mg oral daily for 28 days, Day 28, n 3, Median, read-out: AUC0-tau",285 µg·h/mL
same,Cmax,"human, plasma, po, 120 mg, 120 mg oral daily for 28 days, Day 28, n 3, Median, read-out: Cmax, ss",19800 ng/mL
same,Tmax,"human, plasma, po, 120 mg, 120 mg oral daily for 28 days, Day 28, n 3, Median, read-out: Tmax",4 h
same,Cmax at 28 days,[6],19300 ng/mL
same,Tmax at 28 days,[6],4.67 h
same,AUC,"human, plasma, po, 120 mg, 120 mg oral daily for 28 days, Day 28, n 3, arithmetic mean, read-out: AUC0-tau",272 µg·h/mL
same,Cmax at 28 days,[7],19200 ng/mL
same,Tmax at 28 days,[7],4.58 h
same,AUC,"human, plasma, po, 120 mg, 120 mg oral daily for 28 days, Day 28, n 3, geometric mean, read-out: AUC0-tau",~271 µg·h/mL
same,Cmax,"human, plasma, po, 120 mg, 120 mg oral daily for 28 days, Day 28, n 3, geometric mean, read-out: Cmax, ss",~19200 ng/mL
same,concentration at 13 day,"human, plasma, po, 120 mg, 120 mg oral daily, n 3, Max",9400 ng/mL
same,concentration at 13 day,"human, plasma, po, 120 mg, 120 mg oral daily, n 3, arithmetic mean",8050 ng/mL
same,concentration at 13 day,"human, plasma, po, 120 mg, 120 mg oral daily, n 3, geometric mean",7970 ng/mL
same,Tmax,"human, plasma, po, 120 mg, 120 mg oral daily, Day 28, 4 for two participants, 6 for the third subject, read-out: Tmax,ss, individual values",4 h
same,AUC,"human, plasma, po, 120 mg, 120 mg oral daily, Day 28, read-out: AUC0-tau, individual values",243 to 287 µg·h/mL
same,Cmax,"human, plasma, po, 120 mg, 120 mg oral daily, Day 28, read-out: Cmax,ss, individual values",16900 to 21300 ng/mL
same,concentration at 28 day,"human, plasma, po, 120 mg, 120 mg oral daily, Day 28, read-out: Cmin, individual values",5800 to 7760 ng/mL
same,AUC(0-t),"human, plasma, po, 120 mg, single oral 120 mg, Day 1, three subjects, Median, read-out: AUC0-24",175 µg·h/mL
same,AUC(0-inf),"human, plasma, po, 120 mg, single oral 120 mg, Day 1, three subjects, Median, read-out: AUC0-inf",274 µg·h/mL
same,AUC(0-t),"human, plasma, po, 120 mg, single oral 120 mg, Day 1, three subjects, Median, read-out: AUC0-t",175 µg·h/mL
same,Cmax,"human, plasma, po, 120 mg, single oral 120 mg, Day 1, three subjects, Median, read-out: Cmax",12400 ng/mL
same,Tmax,"human, plasma, po, 120 mg, single oral 120 mg, Day 1, three subjects, Median, read-out: Tmax",3 h
same,half-life,"human, plasma, po, 120 mg, single oral 120 mg, Day 1, three subjects, Median, read-out: t½ (converted)",14.4 h
same,AUC(0-t),"human, plasma, po, 120 mg, single oral 120 mg, Day 1, three subjects, arithmetic mean, read-out: AUC0-24",172 µg·h/mL
same,AUC(0-inf),"human, plasma, po, 120 mg, single oral 120 mg, Day 1, three subjects, arithmetic mean, read-out: AUC0-inf",259 µg·h/mL
same,AUC(0-t),"human, plasma, po, 120 mg, single oral 120 mg, Day 1, three subjects, arithmetic mean, read-out: AUC0-t",172 µg·h/mL
same,Cmax,"human, plasma, po, 120 mg, single oral 120 mg, Day 1, three subjects, arithmetic mean, read-out: Cmax",13300 ng/mL
same,Tmax,"human, plasma, po, 120 mg, single oral 120 mg, Day 1, three subjects, arithmetic mean, read-out: Tmax",3 h
same,half-life,"human, plasma, po, 120 mg, single oral 120 mg, Day 1, three subjects, arithmetic mean, read-out: t½ (converted)",14.1 h
same,AUC(0-t),"human, plasma, po, 120 mg, single oral 120 mg, Day 1, three subjects, geometric mean, read-out: AUC0-24",171 µg·h/mL
same,AUC(0-inf),"human, plasma, po, 120 mg, single oral 120 mg, Day 1, three subjects, geometric mean, read-out: AUC0-inf",257 µg·h/mL
same,AUC(0-t),"human, plasma, po, 120 mg, single oral 120 mg, Day 1, three subjects, geometric mean, read-out: AUC0-t",171 µg·h/mL
same,Cmax,"human, plasma, po, 120 mg, single oral 120 mg, Day 1, three subjects, geometric mean, read-out: Cmax",~13100 ng/mL
same,Tmax,"human, plasma, po, 120 mg, single oral 120 mg, Day 1, three subjects, geometric mean, read-out: Tmax",3 h
same,half-life,"human, plasma, po, 120 mg, single oral 120 mg, Day 1, three subjects, geometric mean, read-out: t½ (converted)",14.1 h
same,AUC(0-inf),"human, plasma, po, 120 mg, single oral 120 mg, Day 1, read-out: AUC0-inf, individual values",212 to 290 µg·h/mL
same,AUC(0-t),"human, plasma, po, 120 mg, single oral 120 mg, Day 1, read-out: AUC0-t, individual values",150 to 190 µg·h/mL
same,Cmax,"human, plasma, po, 120 mg, single oral 120 mg, Day 1, read-out: Cmax, individual values",11100 to 16300 ng/mL
same,Tmax,"human, plasma, po, 120 mg, single oral 120 mg, Day 1, read-out: TMax, all participants",3 h
same,half-life,"human, plasma, po, 120 mg, single oral 120 mg, Day 1, read-out: half-life, individual values (converted)",12.8 h
same,concentration at 0 h,[8],7450 ng/mL
same,concentration at 0.5 h,[8],8190 ng/mL
same,concentration at 1 h,[8],7900 ng/mL
same,concentration at 2 hr,"human, plasma, po, 200 mg, 200 mg oral daily for 28 days, three subjects, time 2 hr",8830 ng/mL
same,concentration at 3 h,[8],13500 ng/mL
same,concentration at 4 h,[8],15100 ng/mL
same,concentration at 5 h,[8],17800 ng/mL
same,concentration at 6 h,[8],20000 ng/mL
same,concentration at 8 h,[8],18300 ng/mL
same,concentration at 12 h,[8],15400 ng/mL
same,concentration at 24 h,[8],8550 ng/mL
same,Tmax,"human, plasma, po, 200 mg, 200 mg oral daily for 28 days, read-out: Tmax, all participants",5 to 6 h
same,concentration at 0 h,[9],0 ng/mL
same,concentration at 0.5 h,[9],0 ng/mL
same,concentration at 1 h,[9],0 ng/mL
same,concentration at 2 h,"human, plasma, po, 200 mg, single oral 200 mg, three subjects, time 2 hr",176 ng/mL
same,concentration at 3 h,[9],1110 ng/mL
same,concentration at 4 h,[9],14300 ng/mL
same,concentration at 5 h,[9],17600 ng/mL
same,concentration at 6 h,[9],15900 ng/mL
same,concentration at 8 h,[9],13400 ng/mL
same,concentration at 12 h,[9],10000 ng/mL
same,concentration at 24 h,[9],5520 ng/mL
same,Tmax,"human, plasma, po, 200 mg, single oral 200 mg, read-out: TMax, all participants",5 to 6 h
same,"half-life, individual values","single oral 120 mg, Day 1",15.28 h and 14.40 h
same,AUC0-24,[10],190 µg·h/mL
same,AUC % extrap,[10],36.4%
same,AUC(0-inf),[10],290 µg·h/mL
same,AUC(0-t),[10],190 µg·h/mL
same,Cmax,[10],16300 ng/mL
same,Kel,[10],0.0544 h⁻¹
same,Tlag,[10],0.50 h
same,t½,[10],15.28 h
same,AUC % extrap,[11],34.33%
same,Kel,[11],0.04813 h⁻¹
same,Tlag,[11],0.000 h
same,AUC0-24,[12],150 µg·h/mL
same,AUC % extrap,[12],29.4%
same,AUC(0-inf),[12],212 µg·h/mL
same,AUC(0-t),[12],150 µg·h/mL
same,Cmax,[12],11100 ng/mL
same,Kel,[12],0.0454 h⁻¹
same,Tlag,[12],0.00 h
same,t½,[12],12.75 h
same,AUC % extrap,[13],33.36%
same,Kel,[13],0.04929 h⁻¹
same,Tlag,[13],0.167 h
same,t½,[13],14.142 h
same,AUC % extrap,[14],33.23%
same,AUC(0-inf),[14],256.6 µg·h/mL
same,AUC(0-t),[14],170.8 µg·h/mL
same,Kel,[14],0.04915 h⁻¹
